In PMC10889512, “Pyrimidine Schiff Bases: Synthesis, Structural Characterization and Recent Studies on Biological Activities” (International Journal of Molecular Sciences, 2024):
In brackets after ≈: the same amount, converted by molar mass. Read-outs that look alike come from different tables or passages of the source.

Tests used:
AGS cell line = tested on: AGS cell line; parameters: method as in Suttie et al. 87; details: ref Suttie et al. 87; cited from earlier work
A172 cell line = tested on: A172 cell line; parameters: method as in PMID 30405885; details: A172, 72 h, 200 µM; cited from earlier work
RPTEC cell line = assay: Neutral red uptake assay on RPTEC cell line; type: cell-based; details: 100 µM, 72 h
Procedure: In order to evaluate the cytotoxic properties of the tested compounds (4a–d), a neutral red uptake (NR) assay was performed on the RPTEC cell line. Four concentrations were used: 10, 100, 250, and 500 µM of each compound. The compound 4a was rejected from further investigation on cancer cell lines due to its high cytotoxicity (53 and 67% at 100 and 250 µM, respectively). Furthermore, at a concentration of 500 µM, the compound 4a crystallized, which influenced the obtained results by attenuating cytotoxic activity. Cell lines were plated in 96-well plates at a density of 1 × 10^4 cells/well. After 24 h incubation, which allowed the cells to attach and start to proliferate, the culture media were replaced with 4a–d dissolved in the appropriate medium at concentrations of 1, 10, 50, 100, 150 and 200 µM. […] Negative (1% DMSO in medium) and positive (1 µM staurosporine) controls were also included. Plates were incubated at 37 °C for 24, 48, and 72 h before the neutral red uptake assay. […] A 100 µL quantity of destain solution consisting of 50% ethanol, 1% glacial acetic acid, and deionized water was added to each well. […] Absorption was measured at 540 nm excitation. The cells’ viability was calculated by comparing results from experimental sets with negative controls according to the formula: % viability=ODtest substance−ODblind/ODnegative control−ODblind×100

E. coli 25922 = assay: Antimicrobial activity assay, microdilution; type: cell-based, Escherichia coli; details: concentration range from 0.5 µg/mL to 256 µg/mL
Procedure: (§1) In vitro antimicrobial and antifungal activity was screened using microdilution and modified Richard’s medium. The assay was performed for compounds 4a, 4b, 4c, and 4d with seven reference microbial strains from ATTC (E. coli 25922, S. aureus 43300, K. pneumoniae 700603, A. baumannii 19606, P. aeruginosa 27853, E. faecalis 29212, and C. albicans 10231).
(§2) Seven reference strains from the ATCC collection (Escherichia coli 25922, Staphylococcus aureus 43300, Klebsiella pneumoniae 13883, Acinetobacter baumannii 19606, Pseudomonas aeruginosa 27853, Enterococcus faecalis 29212, and Candida albicans 10231) were used. The assay was performed according to a modified version of Richard et al.’s protocol and ISO standards 20776-1:2019 and 16256:2021 [78, 79]. Microdilution with spectrophotometric measurement was used to calculate MIC50 (minimal inhibitory concentration which decreased the microorganisms’ viability to 50%) values. Briefly, compounds were prepared 100× concentrated in DMSO, and during the whole experiment, they were diluted to 1× with TSB. Serial dilutions of tested compounds were made directly on plates at a concentration range of 0.5 to 256 µg/mL. Microorganisms were incubated for 24 h at 37 °C (bacteria) or 25 °C (yeast) on Petri dishes with TSA. The bacteria/yeast suspensions were prepared at a density 5 × 10^5 CFU/mL (for bacteria) or 0.5–2.5 × 10^5 CFU/mL (for yeast) with TSB. Also, appropriate controls were contained in the experiment: the positive control consisted of a specific strain in TSB, and the negative control was TSB alone. To ensure that used strains were not modified and were still responding to antibacterial/antifungal compounds established by EUCAST, additional tests were conducted with levofloxacin, gentamicin, and amphotericin B. Microplates were incubated on a shaker for 24 h at 37 ± 1 °C or 25 ± 1 °C for the bacteria and yeast strains, respectively. After the incubation, spectrophotometric measurement was performed at 580 nm. MIC50 was calculated by comparing the results obtained for experimental sets with positive controls. Next, 50 µL aliquots of 1% (m/v) TTC solution were added to each well. The plates were incubated on the shaker for 24 h at 37/25 °C. In living microbial cells, colourless TTC is converted into red formazan crystals, which allows for visual observation and MBC/MFC (minimal bactericidal/fungicidal concentration) value assessment.

S. aureus 43300 = assay: Antimicrobial activity assay, microdilution; type: cell-based, Staphylococcus aureus; details: concentration range from 0.5 µg/mL to 256 µg/mL
Procedure: as §1, §2

K. pneumoniae 700603 = assay: Antimicrobial activity assay, microdilution; type: cell-based, Klebsiella pneumoniae; details: concentration range from 0.5 µg/mL to 256 µg/mL
Procedure: as §1, §2

A. baumannii 19606 = assay: Antimicrobial activity assay, microdilution; type: cell-based, Acinetobacter baumannii; details: concentration range from 0.5 µg/mL to 256 µg/mL
Procedure: as §1, §2

P. aeruginosa 27853 = assay: Antimicrobial activity assay, microdilution; type: cell-based, Pseudomonas aeruginosa; details: concentration range from 0.5 µg/mL to 256 µg/mL
Procedure: as §1, §2

E. faecalis 29212 = assay: Antimicrobial activity assay, microdilution; type: cell-based, Enterococcus faecalis; details: concentration range from 0.5 µg/mL to 256 µg/mL
Procedure: as §1, §2

C. albicans 10231 = assay: Antifungal activity assay, microdilution; type: cell-based, Candida albicans; details: concentration range from 0.5 µg/mL to 256 µg/mL
Procedure: as §1, §2

A172 [1] = assay: Neutral red uptake assay on A172; type: cell-based, human; details: Homo sapiens, A 172, 72 h, A172, 72 h treatment
Procedure: (§3) Based on the results obtained for the RPTEC cell line, the following concentrations of 4b–d were chosen to be applied to neoplastic cell lines: 0.1, 1, 10, 25, 50, and 100 µM. A172, AGS, CaCo-2, HeLa, and HepG2 cancer cell lines were used to perform a neutral red uptake assay. The obtained results were compared with a negative control (cell lines incubated without tested compounds), and half-maximal inhibitory concentration (IC50) values were calculated. Cell lines were plated in 96-well plates at a density of 1 × 10^4 cells/well. After 24 h incubation, which allowed the cells to attach and start to proliferate, the culture media were replaced with 4a–d dissolved in the appropriate medium at concentrations of 1, 10, 50, 100, 150 and 200 µM. […] Negative (1% DMSO in medium) and positive (1 µM staurosporine) controls were also included. Plates were incubated at 37 °C for 24, 48, and 72 h before the neutral red uptake assay. The neutral red uptake assay was performed as described by Repetto et al.. Briefly, the medium from all wells was discarded, the attached cells were washed with 100 µL PBS, and then 100 µL of neutral red working solution in medium (40 µg/mL) was added to each well. The neutral red solution was incubated overnight in the same conditions as the cells and centrifuged before being added to the cells. The plates were incubated for at least 2 h at 37 °C, 5% CO2, in a humidified atmosphere. Next, the neutral red medium was removed, and the cells were washed with 100 µL PBS. A 100 µL quantity of destain solution consisting of 50% ethanol, 1% glacial acetic acid, and deionized water was added to each well. Plates were incubated for 30 min with constant shaking on a horizontal shaker at 37 °C. Absorption was measured at 540 nm excitation. The cells’ viability was calculated by comparing results from experimental sets with negative controls according to the formula: % viability=ODtest substance−ODblind/ODnegative control−ODblind×100

AGS = assay: Neutral red uptake assay on AGS; type: cell-based, human; details: 72 h treatment
Procedure: as §3

CaCo-2 = assay: Neutral red uptake assay on CaCo-2; type: cell-based; details: Homo sapiens; CaCo-2, 72 h treatment
Procedure: as §3

HeLa = assay: Neutral red uptake assay on HeLa; type: cell-based; details: Homo sapiens, 72 h treatment
Procedure: as §3

HepG2 = assay: Neutral red uptake assay on HepG2; type: cell-based; details: Homo sapiens; HepG2, 72 h treatment
Procedure: as §3

A172 [2] = tested on: A172; parameters: method as in PMID 33921108; details: cited from earlier work
Enterococcus faecalis = tested on: Enterococcus faecalis; parameters: method as in PMID 33921108; details: cited from earlier work

| melting point [°C] | SMILES | MIC and MBC/MFC activity (E. coli 25922) | MIC and MBC/MFC activity (S. aureus 43300) | MIC and MBC/MFC activity (K. pneumoniae 700603) | MIC and MBC/MFC activity (A. baumannii 19606) | MIC and MBC/MFC activity (P. aeruginosa 27853) | MIC and MBC/MFC activity (E. faecalis 29212) | MIC and MBC/MFC activity (C. albicans 10231) | further results |
| --- | --- | --- | --- | --- | --- | --- | --- | --- | --- |
|  | O=c1[nH]cc(F)c(=O)[nH]1 [5-fluorouracil] |  |  |  |  |  |  |  | LD50 (AGS cell line): 153.7 µM |
|  | Cn1nnc2c(C(N)=O)ncn2c1=O [TMZ, temozolomide] |  |  |  |  |  |  |  | cell viability (A172 cell line): below 70% |
| 178 | Cc1nc(-c2ccccc2)nc(Nc2ccc(F)cc2)c1C=Nc1ccc(F)cc1 [compound 4a, N-(4-fluorophenyl)-5-{[(4-fluorophenyl)imino]methyl}-6-methyl-2-phenylpyrimidin-4-amine] | Neither MIC nor MBC/MFC activity was observed | Neither MIC nor MBC/MFC activity was observed | Neither MIC nor MBC/MFC activity was observed | Neither MIC nor MBC/MFC activity was observed | Neither MIC nor MBC/MFC activity was observed | Neither MIC nor MBC/MFC activity was observed | Neither MIC nor MBC/MFC activity was observed | cytotoxicity (RPTEC cell line): 53% |
| 167 to 169 | COc1ccccc1N=Cc1c(C)nc(-c2ccccc2)nc1Nc1ccc(F)cc1 [compound 4c, N-(4-fluorophenyl)-6-methyl-2-phenyl-5-{[(2-methoxyphenyl)imino]methyl}pyrimidin-4-amine] | Neither MIC nor MBC/MFC activity was observed | Neither MIC nor MBC/MFC activity was observed | Neither MIC nor MBC/MFC activity was observed | Neither MIC nor MBC/MFC activity was observed | Neither MIC nor MBC/MFC activity was observed | Neither MIC nor MBC/MFC activity was observed | Neither MIC nor MBC/MFC activity was observed | IC50 (A172 [1]): > 100 µM; IC50 (AGS; Homo sapiens, 72 h): > 100 µM; IC50 (CaCo-2): > 100 µM; IC50 (HeLa): > 100 µM; IC50 (HepG2): > 100 µM |
| 210 | Cc1nc(-c2ccccc2)nc(Nc2ccc(F)cc2)c1C=Nc1ccc(Cl)c(C(F)(F)F)c1 [compound 4d, 5-[{[4-chloro-3-(trifluoromethyl)phenyl]imino}methyl]-N-(4-fluorophenyl)-6-methyl-2-phenylpyrimidin-4-amine] | Neither MIC nor MBC/MFC activity was observed | Neither MIC nor MBC/MFC activity was observed | Neither MIC nor MBC/MFC activity was observed | Neither MIC nor MBC/MFC activity was observed | Neither MIC nor MBC/MFC activity was observed | Neither MIC nor MBC/MFC activity was observed | Neither MIC nor MBC/MFC activity was observed | IC50 (A172 [1]): > 100 µM; IC50 (AGS): > 100 µM; IC50 (AGS; Homo sapiens, 72 h): 190 µM; IC50 (CaCo-2): > 100 µM; IC50 (HeLa): > 100 µM; IC50 (HepG2): > 100 µM |
|  | CCOc1ccc(N=Cc2c(C)nc(-c3ccccc3)nc2Nc2ccc(F)cc2)cc1 [compound III, 5-[(4-ethoxyphenyl)imino]methyl-N-(4-fluorophenyl)-6-methyl-2-phenylpyrimidin-4-amine] |  |  |  |  |  |  |  | IC50 (A172 [2]): 526 µM; MBC (Enterococcus faecalis): 32 µg/mL (≈ 75 µM); MIC (Enterococcus faecalis): 16 µg/mL (≈ 37.5 µM) |
|  | COc1cccc2c1C(=O)c1c(O)c3c(c(O)c1C2=O)C[C@@](O)(C(=O)CO)C[C@@H]3O[C@H]1C[C@H](N)[C@@H](O)[C@H](C)O1 [epirubicin] |  |  |  |  |  |  |  | LD50 (AGS cell line): 0.23 µM |
